12 compounds from patent US8163724B2, “Glucocorticosteroids, processes for their preparation, pharmaceutical compositions containing them and their use in therapy” (AstraZeneca AB, priority 2007, dated 2012) can be followed below.

For the assay, the target named is T1, recombinant human GR (Homo sapiens, UniProt P04150).
T1 construct: purchased Panvera/Invitrogen P2812 (kit P2893)
T1 sequence (P04150 1-777): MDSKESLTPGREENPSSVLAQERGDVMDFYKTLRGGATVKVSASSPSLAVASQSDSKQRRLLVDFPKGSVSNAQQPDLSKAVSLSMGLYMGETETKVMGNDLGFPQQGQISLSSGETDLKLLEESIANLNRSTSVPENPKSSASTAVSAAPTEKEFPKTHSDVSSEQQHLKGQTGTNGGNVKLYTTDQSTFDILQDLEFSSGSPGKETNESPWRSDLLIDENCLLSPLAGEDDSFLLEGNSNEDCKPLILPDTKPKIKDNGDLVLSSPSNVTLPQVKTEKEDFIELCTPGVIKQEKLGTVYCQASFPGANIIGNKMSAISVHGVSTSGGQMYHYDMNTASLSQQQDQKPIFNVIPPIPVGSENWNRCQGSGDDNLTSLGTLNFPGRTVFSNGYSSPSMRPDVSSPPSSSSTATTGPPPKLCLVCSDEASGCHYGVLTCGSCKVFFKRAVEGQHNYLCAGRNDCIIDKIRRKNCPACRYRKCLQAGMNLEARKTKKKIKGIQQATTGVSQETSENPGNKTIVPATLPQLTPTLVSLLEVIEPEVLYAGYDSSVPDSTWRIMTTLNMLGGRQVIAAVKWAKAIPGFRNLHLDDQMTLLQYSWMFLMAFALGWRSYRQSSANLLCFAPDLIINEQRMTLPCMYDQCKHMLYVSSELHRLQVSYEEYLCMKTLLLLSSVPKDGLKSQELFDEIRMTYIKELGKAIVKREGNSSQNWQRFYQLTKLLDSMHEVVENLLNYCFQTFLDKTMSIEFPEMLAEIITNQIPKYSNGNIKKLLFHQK
Put plainly: Human Glucocorticoid Receptor (GR) Assay (fluorescence polarization, Panvera/Invitrogen kit). The note with it: fluorescence polarization; GS Red tracer; 2 hours at room temperature; 100% control 10 μM Dexamethasone; read-out: Inhibition of GR binding, IC50. The format is binding. The procedure, abridged:
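Fluorescence polarization competition with recombinant GR and GS Red fluorescent ligand plus stabilizing peptide and DTT in potassium phosphate/sodium molybdate/EDTA buffer with DMSO. Incubated 2 hours at room temperature in the dark; 0% control DMSO, 100% control 10 μM dexamethasone.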
A general note: In fluorescence polarisation assays a small probe gives low polarisation when free and higher when bound to something large.
Consider `COCC(=O)O[C@]1(C(=O)SCF)CC[C@H]2[C@@H]3CCC4=Cc5c(cnn5-c5ccc(F)nc5)C[C@]4(C)[C@@]3(F)[C@@H](O)C[C@@]21C` [Example 206, (1R,3aS,3bS,10aS,10bR,11S,12aS)-1-{[(Fluoromethyl)sulfanyl]carbonyl}-10b-fluoro-7-(6-fluoropyridin-3-yl)-11-hydroxyl-1,2,3,3a,3b,4,5,7,10,10a,10b,11,12,12a-tetradecahydrocyclopenta[5,6]naphtho[1,2-f]indazol-1-yl methoxyacetate], for which the concentration for half-maximal inhibition (IC50) came out at 2.5 nM.
`C[C@]12Cc3cnn(-c4ccc(F)nc4)c3C=C1CC[C@H]1[C@@H]3CC[C@](OC(=O)C4CC4)(C(=O)SCC#N)[C@@]3(C)C[C@H](O)[C@@]12F` [Example 207, (1R,3aS,3bS,10aS,10bR,11S,12aS)-1-{[(Cyanomethyl)sulfanyl]carbonyl}-10b-fluoro-7-(6-fluoropyridin-3-yl)-11-hydroxy-10a,12a-dimethyl-1,2,3,3a,3b,4,5,7,10,10a,10b,11,12,12a-tetradecahydrocyclopenta[5,6]naphtho[1,2-f]indazol-1-yl cyclopropanecarboxylate]: the IC50 was determined as 3.3 nM.
As for `C[C@]12Cc3cnn(-c4ccc(F)nc4)c3C=C1CC[C@H]1[C@@H]3CC[C@](OC(=O)C4CC4)(C(=O)SCF)[C@@]3(C)C[C@H](O)[C@@]12F` [Example 208, (1R,3aS,3bS,10aS,10bR,11S,12aS)-1-{[(Fluoromethyl)sulfanyl]carbonyl}-10b-fluoro-7-(6-fluoropyridin-3-yl)-11-hydroxy-10a,12a-dimethyl-1,2,3,3a,3b,4,5,7,10,10a,10b,11,12,12a-tetradecahydrocyclopenta[5,6]naphtho[1,2-f]indazol-1-yl cyclopropanecarboxylate], the figure is 3.4 nM.
As for `C[C@]12Cc3cnn(-c4ccc(F)nc4)c3C=C1CC[C@H]1[C@@H]3CC[C@](OC(=O)c4cocn4)(C(=O)SCC#N)[C@@]3(C)C[C@H](O)[C@@]12F` [Example 209, (1R,3aS,3bS,10aS,1.0bR,11S,12aS)-1-{[(Cyanomethyl)sulfanyl]carbonyl}-10b-fluoro-7-(6-fluoropyridin-3-yl)-11-hydroxy-10a,12a-dimethyl-1,2,3,3a,3b,4,5,7,10,10a,10b,11,12,12a-tetradecahydrocyclopenta[5,6]naphtho[1,2-f]indazol-1-yl 1,3-oxazole-4-carboxylate], the IC50 came to 3.6 nM.
The value for `C[C@]12Cc3cnn(-c4ccc(F)nc4)c3C=C1CC[C@H]1[C@@H]3CC[C@](OC(=O)c4cocn4)(C(=O)SCF)[C@@]3(C)C[C@H](O)[C@@]12F` [Example 210, (1R,3aS,3bS,10aS,10bR,11S,12aS)-1-{[(Fluoromethyl)sulfanyl]carbonyl}-10b-fluoro-7-(6-fluoropyridin-3-yl)-11-hydroxy-10a,12a-dimethyl-1,2,3,3a,3b,4,5,7,10,10a,10b,11,12,12a-tetradecahydrocyclopenta[5,6]naphtho[1,2-f]indazol-1-yl 1,3-oxazole-4-carboxylate] was 2 nM; that for `C[C@]12Cc3cnn(-c4ccc(F)nc4)c3C=C1CC[C@H]1[C@@H]3CC[C@](OC(=O)c4ccco4)(C(=O)SCC#N)[C@@]3(C)C[C@H](O)[C@@]12F` [Example 211, (1R,3aS,3bS,10aS,10bR,11S,12aS)-1-{[(Cyanomethyl)sulfanyl]carbonyl}-10b-fluoro-7-(6-fluoropyridin-3-yl)-11-hydroxy-10a,12a-dimethyl-1,2,3,3a,3b,4,5,7,10,10a,10b,11,12,12a-tetradecahydrocyclopenta[5,6]naphtho[1,2-f]indazol-1-yl furan-2-carboxylate] was 2.2 nM; that for `C[C@]12Cc3cnn(-c4ccc(F)nc4)c3C=C1CC[C@H]1[C@@H]3CC[C@](OC(=O)c4ccco4)(C(=O)SCF)[C@@]3(C)C[C@H](O)[C@@]12F` [Example 212, (1R,3aS,3bS,10aS,10bR,11S,12aS)-1-{[(Fluoromethyl)sulfanyl]carbonyl}-10b-fluoro-7-(6-fluoropyridin-3-yl)-11-hydroxy-10a,12a-dimethyl-1,2,3,3a,3b,4,5,7,10a,10b,11,12,12a-tetradecahydrocyclopenta[5,6]naphtho[1,2-f]indazol-1-yl furan-2-carboxylate] was 2.1 nM.
`CCC(=O)O[C@]1(C(=O)SCC#N)CC[C@H]2[C@@H]3C[C@H](C)C4=Cc5c(cnn5-c5ccc(F)cc5)C[C@]4(C)[C@H]3[C@@H](O)C[C@@]21C` [Example 213, (1R,3aS,3bS,5S,10aR,10bS,11S,12aS)-1-{[(Cyanomethyl)sulfanyl]carbonyl}-7-(4-fluorophenyl)-11-hydroxy-5,10a,12a-trimethyl-1,2,3,3a,3b,4,5,7,10,10a,10b,11,12,12a-tetradecahydrocyclopenta[5,6]naphtho[1,2-f]indazol-1-yl propanoate]: the IC50 turned out to be 11 nM.
As to `CCC(=O)O[C@]1(C(=O)SCF)CC[C@H]2[C@@H]3C[C@H](C)C4=Cc5c(cnn5-c5ccc(F)cc5)C[C@]4(C)[C@H]3[C@@H](O)C[C@@]21C` [Example 214, (1R,3aS,3bS,5S,10aR,10bS,11S,12aS)-1-{[(Fluoromethyl)sulfanyl]carbonyl}-7-(4-fluorophenyl)-11-hydroxy-5,10a,12a-trimethyl-1,2,3,3a,3b,4,5,7,10,10a,10b,11,12,12a-tetradecahydrocyclopenta[5,6]naphtho[1,2-f]indazol-1-yl propanoate], the IC50 stood at 49 nM.
Regarding `COCC(=O)O[C@]1(C(=O)SCC#N)CC[C@H]2[C@@H]3C[C@H](C)C4=Cc5c(cnn5-c5ccc(F)cc5)C[C@]4(C)[C@H]3[C@@H](O)C[C@@]21C` [Example 215, (1R,3aS,3bS,5S,10aR,10bS,11S,12aS)-1-{[(Cyanomethyl)sulfanyl]carbonyl}-7-(4-fluorophenyl)-11-hydroxy-5,10a,12a-trimethyl-1,2,3,3a,3b,4,5,7,10,10a,10b,11,12,12a-tetradecahydrocyclopenta[5,6]naphtho[1,2-f]indazol-1-yl methoxyacetate], the half-maximal inhibitory concentration (IC50) stood at 51 nM.
For `COCC(=O)O[C@]1(C(=O)SCF)CC[C@H]2[C@@H]3C[C@H](C)C4=Cc5c(cnn5-c5ccc(F)cc5)C[C@]4(C)[C@H]3[C@@H](O)C[C@@]21C` [Example 216, (1R,3aS,3bS,5S,10aR,10bS,11S,12aS)-1-{[(Fluoromethyl)sulfanyl]carbonyl}-7-(4-fluorophenyl)-11-hydroxy-5,10a,12a-trimethyl-1,2,3,3a,3b,4,5,7,10,10a,10b,11,12,12a-tetradecahydrocyclopenta[5,6]naphtho[1,2]-indazol-1-yl methoxyacetate], the IC50 was determined as 8.8 nM.
Consider “(1R,3aS,3bS,10aR,10bS,11S,12aS)-1-{[(Cyanomethyl)sulfanyl]carbonyl}-7-(4-fluorophenyl)-11-hydroxy-10a,12a-dimethyl-1,2,3,3a,3b,4,5,7,10,10a,10b,11,12,12a-tetradecahydrocyclopenta[5,6]naphtho[1,2]-indazol-1-yl 2-methyltetrahydrofuran-2-carboxylate [Example 132]”, for which the half-maximal inhibitory concentration (IC50) amounted to 4 nM.

One may read the IC50 as the concentration needed to halve the response being measured.
